Several values for one entry are separate records, joined by “and”; a condition that tells them apart may be missing. Equal values may be shown once. Read-outs that look alike come from different tables or passages of the source.
Key:
[1] = target: C. elegans complex II (succinate dehydrogenase) (Caenorhabditis elegans, UniProt O62215+P41956+Q09545); assay: In vitro complex II activity assay, C. elegans mitochondria; assay type: biochemical; settings: for Percent in vitro activity, Complex II (single replicate Rep1-Rep4): individual biological replicates; for percent (%) in vitro complex II activity relative to solvent control: wild-type C. elegans
Method in brief: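 Mitochondria isolated from adult C. elegans were diluted to 0.2 mg/mL protein and assayed for complex II by the DCIP-coupled method. A600 was read every 30 s over 15 min, with initial linear slope expressed as percent of solvent control. Screening was at 100 μM (≥3 biological replicates), followed by dose-response.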

[2] = system: C. elegans complex IV (cytochrome C oxidase); assay: In vitro complex IV activity assay, C. elegans mitochondria; assay type: biochemical, Caenorhabditis elegans; settings: for % Activity Complex IV: 100 µM compound, relative to solvent control, mean (SEM); for CIV Activity: 100 μM inhibitor, in vitro activity relative to solvent control, N2 C. elegans mitochondria; for Percent in vitro activity, Complex IV (single replicate Rep1-Rep4) / Percent in vitro activity, Complex IV (Mean): 100 μM of NPD compound, C. elegans mitochondria; for Percent in vitro activity, Complex IV (single replicate Rep1-Rep4): individual biological replicates; for Percent in vitro activity, Complex IV (Mean): mean of four biological replicates
Method in brief: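 Mitochondria from liquid-cultured adult C. elegans (N2, CB3474, ECA882, ECA917, ECA1075, ECA1080), isolated by differential centrifugation and used at 0.2 mg/mL protein. Oxidation of DTT-reduced cytochrome C followed at 550 nm every 30 s for 15 min. Activity from the initial linear slope, expressed as percent of solvent controls.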

[3] = system: P. hermaphrodita complex I; assay: In vitro complex I activity assay, P. hermaphrodita mitochondria; assay type: biochemical, Phasmarhabditis hermaphrodita; settings: purified mitochondria
Description: Mitochondria were isolated from the following free-living nematode strains: C. elegans—N2, CB3474, ECA882, ECA917, ECA1075, ECA1080; C. briggsae—AF16; P. pacificus—PS312; and P. hermaphrodita—B178. With the exception of the P. hermaphrodita strain B178, adult worms of each strain were grown in bulk through liquid culture to obtain mitochondria in sufficient quantities. Due to poor growth in liquid media, mixed stage populations of P. hermaphrodita were washed off and collected from NGM plates seeded with OP50. The isolation of mitochondria from all free-living nematode strains followed the protocol previously outlined in Burns et al.[24]. In brief, a 1 L saturated culture of E. coli HB101 was concentrated 20-fold in 50 mL complete S-medium. ~500,000 L1 worms synchronized from an embryo preparation performed the day prior were added to the S-media/HB101 suspension and grown to adulthood over the course of 3.5 days at 20 °C with shaking at 165 rpm. Following growth, worms were collected in 10 ×15 mL conical tubes and washed 7 times in M9 buffer. Worm suspensions were then combined into a single 15 mL conical tube and diluted to a final volume of 15 mL with M9 buffer. 1 mL aliquots of worm suspension were then distributed to 15 × 1.5 mL screw-cap microcentrifuge tubes and were pelleted at 500 g for 1 min. Excess M9 was aspirated without disturbing the worm pellet. 600 μL ice-cold isolate buffer A (250 mM sucrose, 10 mM Tris (pH 7.5), 1 mM EDTA, 1 mM PMSF (freshly prepared)) and 300 μL cold glass beads were then added to each tube. Tubes were incubated on ice for 10 min, and the worms were then lysed by bead beating (6 x 30 s, with 1 min cooling intervals). Tubes containing worm lysate were centrifuged at 1,000 g for 10 min at 4 °C and the supernatant was transferred to 15 new microcentrifuge tubes on ice. The tubes were centrifuged a second time at 1,000 g for 10 min at 4 °C and the supernatant was once again transferred to 15 new microcentrifuge tubes on ice. These tubes were then centrifuged at 16,000 g for 10 min at 4 °C. The resulting mitochondrial pellet was washed twice by re-suspension in 300 μL of ice-cold isolate buffer B (250 mM sucrose, 10 mM Tris (pH 7.5), 1 mM EDTA). Following the final wash, isolation buffer was aspirated from each tube and the pellets were flash-frozen in ethanol/dry ice and stored at −80 °C until needed.
The enzymatic activities of individual ETC complexes (I-IV) were assessed spectrophotometrically in isolated mitochondria using a Varioskan LUX Multimode plate reader (ThermoFisher Scientific). Mitochondrial pellets previously isolated were thawed on ice and resuspended in ice-cold isolation buffer (250 mM sucrose, 10 mM Tris (pH 7.5), 1 mM EDTA). The BCA assay (Walker, 1994) was used to quantify the protein concentration of mitochondria suspensions; solutions were diluted to a concentration of 0.2 mg/mL for use in all assays. For the complex I assay, mitochondria pellets were freeze-thawed on ice three times to increase enzyme accessibility. […] 20 μL mitochondria suspension was then added/mixed with a pipette to initiate the reaction. Immediately following the addition of mitochondria, absorbance was measured (complex I and II: 600 nm; complex III and IV: 550 nm) in 30 s intervals over 15 min. Enzymatic activity was determined in each reaction by plotting absorbance versus time and calculating the slope of the curve during the initial linear phase of the reaction. […] Percent activity of each complex was calculated by dividing the enzyme-specific activity of each well by the enzyme-specific activity of the corresponding solvent controls.
Chemical solutions were prepared in complex I assay buffer composed of 25 mM KPi buffer (pH 7.5), 3 mg/mL bovine serum albumin (BSA), 80 μM NADH, 60 μM decylubiquinone, 160 μM DCIP, 2 μM antimycin A and 2 mM KCN. […]

C. elegans complex II (succinate dehydrogenase), sequence (P41956 30-182): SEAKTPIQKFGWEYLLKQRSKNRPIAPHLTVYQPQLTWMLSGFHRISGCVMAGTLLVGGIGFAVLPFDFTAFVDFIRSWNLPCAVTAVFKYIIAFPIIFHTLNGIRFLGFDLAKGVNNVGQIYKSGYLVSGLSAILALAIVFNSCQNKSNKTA
C. elegans complex II (succinate dehydrogenase), sequence (Q09545 22-298): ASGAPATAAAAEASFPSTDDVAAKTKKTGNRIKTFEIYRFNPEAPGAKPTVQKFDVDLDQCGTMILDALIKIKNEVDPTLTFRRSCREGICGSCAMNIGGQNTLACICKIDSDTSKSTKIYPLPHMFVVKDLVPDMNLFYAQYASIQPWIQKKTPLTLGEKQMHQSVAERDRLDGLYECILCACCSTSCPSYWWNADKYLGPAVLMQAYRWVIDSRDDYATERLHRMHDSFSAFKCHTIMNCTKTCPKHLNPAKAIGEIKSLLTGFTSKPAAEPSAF
C. elegans complex II (succinate dehydrogenase), sequence (Q09508 32-646, further chain): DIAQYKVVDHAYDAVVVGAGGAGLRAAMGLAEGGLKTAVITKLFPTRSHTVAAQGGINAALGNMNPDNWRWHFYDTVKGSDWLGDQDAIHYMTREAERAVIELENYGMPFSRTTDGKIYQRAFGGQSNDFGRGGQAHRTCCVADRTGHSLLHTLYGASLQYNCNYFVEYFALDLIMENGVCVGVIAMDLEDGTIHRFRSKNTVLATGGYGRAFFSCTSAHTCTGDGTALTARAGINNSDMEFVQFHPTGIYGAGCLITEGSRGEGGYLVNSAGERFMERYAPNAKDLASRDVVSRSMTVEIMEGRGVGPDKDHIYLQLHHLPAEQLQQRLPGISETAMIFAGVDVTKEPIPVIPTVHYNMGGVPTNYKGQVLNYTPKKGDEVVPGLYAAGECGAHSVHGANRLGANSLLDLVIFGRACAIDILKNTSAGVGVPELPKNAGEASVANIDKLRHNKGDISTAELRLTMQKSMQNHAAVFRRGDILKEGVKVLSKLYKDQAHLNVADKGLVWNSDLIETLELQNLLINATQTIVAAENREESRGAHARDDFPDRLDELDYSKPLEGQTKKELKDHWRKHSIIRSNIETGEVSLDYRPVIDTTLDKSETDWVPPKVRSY
C. elegans complex II (succinate dehydrogenase), sequence (O62215 31-145): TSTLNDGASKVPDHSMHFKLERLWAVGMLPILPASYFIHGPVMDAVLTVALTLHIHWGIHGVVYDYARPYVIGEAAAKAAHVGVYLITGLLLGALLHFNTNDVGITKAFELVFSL

With `O=C(NCCc1ccc(Cl)cc1)c1ccccc1C(F)(F)F` [Wact-11] the “% Activity Complex II” value ([1]; 100 µM compound, relative to solvent control, mean (SEM)) was 24.43 (0.62) %, the “CII Activity” value ([1]; 100 μM inhibitor, in vitro activity relative to solvent control, N2 C. elegans mitochondria, Mean) was 24.430% and the “Percent in vitro activity, Complex II (single replicate Rep1-Rep4)” value ([1]; 100 μM of NPD compound, C. elegans mitochondria) was 25.363% and 20.777% and 26.220%. For the same molecule, the “Percent in vitro activity, Complex II (Mean)” value ([1]; 100 μM of NPD compound, C. elegans mitochondria, mean of four biological replicates) was 24.431%, the “percent (%) in vitro complex II activity relative to solvent control” value ([1]; dose 0.0001 µM, Mean of replicates) was 94.900% and the “percent (%) in vitro complex II activity relative to solvent control” value ([1]; dose 0.0001 µM, individual replicates) was 104.455% and 86.022% and 94.224%. For the same molecule, the “percent (%) in vitro complex II activity relative to solvent control” value ([1]; dose 0.0005 µM, Mean of replicates) was 92.990%, the “percent (%) in vitro complex II activity relative to solvent control” value ([1]; dose 0.0005 µM, individual replicates) was 105.223% and 78.802% and 94.946% and the “percent (%) in vitro complex II activity relative to solvent control” value ([1]; dose 0.001 µM, Mean of replicates) was 95.541%. The “percent (%) in vitro complex II activity relative to solvent control” value ([1]; dose 0.001 µM, individual replicates) was 97.389% and 94.470% and 94.765%, the “percent (%) in vitro complex II activity relative to solvent control” value ([1]; dose 0.0025 µM, Mean of replicates) was 86.830% and the “percent (%) in vitro complex II activity relative to solvent control” value ([1]; dose 0.0025 µM, individual replicates) was 88.172% and 83.871% and 88.448%. For the same molecule, the “percent (%) in vitro complex II activity relative to solvent control” value ([1]; dose 0.005 µM, Mean of replicates) was 71.382%, the “percent (%) in vitro complex II activity relative to solvent control” value ([1]; dose 0.005 µM, individual replicates) was 74.194% and 66.667% and 73.285% and the “percent (%) in vitro complex II activity relative to solvent control” value ([1]; dose 0.013 µM, Mean of replicates) was 42.140%. For the same molecule, the “percent (%) in vitro complex II activity relative to solvent control” value ([1]; dose 0.013 µM, individual replicates) was 41.167% and 38.863% and 46.390%, the “percent (%) in vitro complex II activity relative to solvent control” value ([1]; dose 0.025 µM, Mean of replicates) was 24.327% and the “percent (%) in vitro complex II activity relative to solvent control” value ([1]; dose 0.025 µM, individual replicates) was 28.111% and 21.045% and 23.827%. For the same molecule, the “percent (%) in vitro complex II activity relative to solvent control” value ([1]; dose 0.063 µM, Mean of replicates) was 7.305%, the “percent (%) in vitro complex II activity relative to solvent control” value ([1]; dose 0.063 µM, individual replicates) was 6.298% and 1.536% and 14.079% and the “percent (%) in vitro complex II activity relative to solvent control” value ([1]; dose 0.125 µM, Mean of replicates) was 1.918%. For the same molecule, the “percent (%) in vitro complex II activity relative to solvent control” value ([1]; dose 0.125 µM, individual replicates) was 3.226% and 0.000% and 2.527%, the “percent (%) in vitro complex II activity relative to solvent control” value ([1]; dose 0.313 µM, Mean of replicates) was 0.000% and the “percent (%) in vitro complex II activity relative to solvent control” value ([1]; dose 0.313 µM, individual replicates) was 0.000%. For the same molecule, the “percent (%) in vitro complex II activity relative to solvent control” value ([1]; dose 0.625 µM, Mean of replicates) was 2.509%, the “percent (%) in vitro complex II activity relative to solvent control” value ([1]; dose 0.625 µM, individual replicates) was 0.000% and 7.527% and the “percent (%) in vitro complex II activity relative to solvent control” value ([1]; dose 1.5 µM, Mean of replicates) was 0.000%. The “percent (%) in vitro complex II activity relative to solvent control” value ([1]; dose 1.5 µM, individual replicates) was 0.000%, the “percent (%) in vitro complex II activity relative to solvent control” value ([1]; dose 3 µM, Mean of replicates) was 0.717% and the “percent (%) in vitro complex II activity relative to solvent control” value ([1]; dose 3 µM, individual replicates) was 0.000% and 2.151%. For the same molecule, the “percent (%) in vitro complex II activity relative to solvent control” value ([1]; dose 15 µM, Mean of replicates) was 2.650%, the “percent (%) in vitro complex II activity relative to solvent control” value ([1]; dose 15 µM, individual replicates) was 0.000% and 6.144% and 1.805% and the “percent (%) in vitro complex II activity relative to solvent control” value ([1]; dose 37.5 µM, Mean of replicates) was 1.029%. For the same molecule, the “percent (%) in vitro complex II activity relative to solvent control” value ([1]; dose 37.5 µM, individual replicates) was 0.000% and 0.922% and 2.166%, the “percent (%) in vitro complex II activity relative to solvent control” value ([1]; dose 75 µM, Mean of replicates) was 0.000% and the “percent (%) in vitro complex II activity relative to solvent control” value ([1]; dose 75 µM, individual replicates) was 0.000%. For the same molecule, the IC50 ([1]; wild-type (N2) mitochondria) was 0.0071 µM, the “% Activity Complex IV” value [2] was 89.00 (0.63) % and the “CIV Activity” value ([2]; Mean) was 88.998%. For the same molecule, the “CIV Activity” value ([2]; single replicate) was 91.037% and 86.647% and 91.305% and 87.004%, the “Percent in vitro activity, Complex IV (single replicate Rep1-Rep4)” value [2] was 91.037% and 86.647% and 91.305% and 87.004% and the “Percent in vitro activity, Complex IV (Mean)” value [2] was 88.998%.

`Cc1ccccc1OCCCCn1cnc2ccccc21` [Compound 7732524] was tested, and the IC50 [3] was 0.0687 µM.

With `C=C(C)[C@H]1Cc2c(ccc3c2O[C@@H]2COc4cc(OC)c(OC)cc4[C@@H]2C3=O)O1` [Rotenone, reference compound] the activity at 100 µM ([1]; 100 µM compound, relative to solvent control, mean (SEM), read-out: % Activity Complex II) was 106%, the activity at 100 µM ([1]; 100 μM inhibitor, in vitro activity relative to solvent control, N2 C. elegans mitochondria, Mean, read-out: CII Activity) was 106% and the “Percent in vitro activity, Complex II (single replicate Rep1-Rep4)” value ([1]; 100 μM of NPD compound, C. elegans mitochondria, 100 µM) was 120.467% and 95.666% and 95.033% and 112.709%. For the same molecule, the activity at 100 µM ([1]; 100 μM of NPD compound, C. elegans mitochondria, mean of four biological replicates, read-out: Percent in vitro activity, Complex II (Mean)) was 106%, the “% Activity Complex IV” value [2] was 99.57 (1.12) % and the “CIV Activity” value ([2]; Mean) was 99.566%. The “CIV Activity” value ([2]; single replicate) was 94.435% and 102.333% and 104.163% and 97.333%, the “Percent in vitro activity, Complex IV (single replicate Rep1-Rep4)” value [2] was 102.333% and 104.163% and 97.333% and 94.435% and the “Percent in vitro activity, Complex IV (Mean)” value [2] was 99.566%.
